Reference: ChEMBL document CHEMBL1201862, “PubChem BioAssay data set” (2004)
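All cell lines were grown in 96-well plates and treated with compound for 48 hours. GI50 marks 50% less growth.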 Activity calls are given as the source filed them. No stated cut-off is given here; in the data, active = GI50 up to about 1.1 µM and inactive = higher.

Key:
Experiment in all cases: NCI tumour cell line growth inhibition, 48 h
A498 = tested on: A498
HL-60 = tested on: HL-60
HOP-62 = tested on: HOP-62
HOP-92 = tested on: HOP-92
MOLT-4 = tested on: MOLT-4
Malme-3M = tested on: Malme-3M
OVCAR-4 = tested on: OVCAR-4
SF-295 = tested on: SF-295
SK-OV-3 = tested on: SK-OV-3
SNB-19 = tested on: SNB-19
SNB-75 = tested on: SNB-75
SR = tested on: SR
UO-31 = tested on: UO-31
NCI-H522 = tested on: NCI-H522
RPMI-8226 = tested on: RPMI-8226

SMILES | GI50 (A498) | GI50 (HL-60) | GI50 (HOP-62) | GI50 (HOP-92) | GI50 (MOLT-4) | GI50 (Malme-3M) | GI50 (OVCAR-4) | GI50 (SF-295) | GI50 (SK-OV-3) | GI50 (SNB-19) | GI50 (SNB-75) | GI50 (SR) | GI50 (UO-31) | GI50 (NCI-H522) | GI50 (RPMI-8226)
N#CC1=C(N)Oc2c(ccc3cccnc23)C1c1ccccc1 (stereo not given) | 2.21 µM (inactive) | 0.267 µM (active) | 1.16 µM (inactive) | 9.35 µM (inactive) | 0.667 µM (active) | 15.2 µM (inactive) | 17.2 µM (inactive) | 0.515 µM (active) | 0.731 µM (active) | 5.3 µM (inactive) | 0.731 µM (active) | 0.333 µM (active) | 4.46 µM (inactive) |  | 
COC(=O)c1ccc(C(=O)OC)c2nc3cc(Cl)ccc3nc12 | > 100 µM (inactive) | > 100 µM (inactive) | > 100 µM (inactive) | > 100 µM (inactive) | > 100 µM (inactive) | > 100 µM (inactive) | > 100 µM (inactive) | > 100 µM (inactive) | > 100 µM (inactive) | > 100 µM (inactive) | > 100 µM (inactive) |  | > 100 µM (inactive) | > 100 µM (inactive) | > 100 µM (inactive)
CNS(=O)(=O)NNS(=O)(=O)c1cccc([N+](=O)[O-])c1 |  |  | > 100 µM (inactive) |  | > 100 µM (inactive) | > 100 µM (inactive) | > 100 µM (inactive) | > 100 µM (inactive) |  | > 100 µM (inactive) | > 100 µM (inactive) | > 100 µM (inactive) | > 100 µM (inactive) | > 100 µM (inactive) | > 100 µM (inactive)
CN(C)CCSc1nccc(-c2cc3ccccc3s2)n1 | 20.1 µM (inactive) |  | 23.8 µM (inactive) | 2.87 µM (inactive) | 26.2 µM (inactive) | 19.5 µM (inactive) | 38.5 µM (inactive) | 16.2 µM (inactive) | 37.3 µM (inactive) |  | 54 µM (inactive) | 19.2 µM (inactive) | 19.1 µM (inactive) | 20.1 µM (inactive) | 
CCOC(=O)C1=C(C)N(NC(=O)Nc2ccccc2)C2(N)N(NC(=O)Nc3ccccc3)C(C)=C(C(=O)OCC)C12C#N (stereo not given) | 22.3 µM (inactive) |  |  | 20.2 µM (inactive) | 21.6 µM (inactive) | 15.5 µM (inactive) | 17.4 µM (inactive) |  | 25.5 µM (inactive) |  | 18.9 µM (inactive) |  | > 100 µM (inactive) | 18.9 µM (inactive) | 22 µM (inactive)
Cc1nc(O)nc(CC(O)(c2ccccc2)c2ccccc2)c1-c1ccccc1 | > 100 µM (inactive) | > 100 µM (inactive) | > 100 µM (inactive) | 55.8 µM (inactive) | > 100 µM (inactive) | > 100 µM (inactive) | > 100 µM (inactive) | > 100 µM (inactive) | > 100 µM (inactive) | > 100 µM (inactive) | 52.6 µM (inactive) |  | 50.1 µM (inactive) | 58.5 µM (inactive) | 
Cc1nc(Nc2ccccc2)sc1C(=O)CC(=O)C(=O)NC12CC3CC(CC(C3)C1)C2 |  | 92.3 µM (inactive) | 83.2 µM (inactive) | 23 µM (inactive) | > 100 µM (inactive) | > 100 µM (inactive) | > 100 µM (inactive) | 71.3 µM (inactive) | > 100 µM (inactive) | > 100 µM (inactive) | 33.9 µM (inactive) |  | 92.3 µM (inactive) | 79.6 µM (inactive) | 
Cn1c2cc([N+](=O)[O-])ccc2c(=O)c2c(O)cc3c(c21)C=CC(C)(C)O3 | 33.5 µM (inactive) | > 100 µM (inactive) |  |  | > 100 µM (inactive) | > 100 µM (inactive) | > 100 µM (inactive) | 16.9 µM (inactive) | 21.9 µM (inactive) | 31.6 µM (inactive) | 10.1 µM (inactive) |  | 26.7 µM (inactive) | 46.5 µM (inactive) | > 100 µM (inactive)
CCCC/C=C1\CCC(CN2CCCC2)C1=O (stereo not given) | 14.7 µM (inactive) | 8.61 µM (inactive) | 18.4 µM (inactive) | 12.1 µM (inactive) | 3.57 µM (inactive) | 17.8 µM (inactive) |  | 18.1 µM (inactive) | 28.5 µM (inactive) | 21.8 µM (inactive) | 18.4 µM (inactive) | 4.36 µM (inactive) | 17.2 µM (inactive) |  | 
N#Cc1ccc(Nc2cnc3cc(N)ccc3n2)cc1 |  | 14.9 µM (inactive) | > 100 µM (inactive) | 54.5 µM (inactive) | 41.7 µM (inactive) | > 100 µM (inactive) | > 100 µM (inactive) | > 100 µM (inactive) | > 100 µM (inactive) | 71.4 µM (inactive) | > 100 µM (inactive) | 44.4 µM (inactive) | 56 µM (inactive) | 48.2 µM (inactive) | 42.7 µM (inactive)
Cc1ccc(/C=C/C(=O)c2sc(-c3cccnc3)nc2C)cc1 | > 100 µM (inactive) | > 100 µM (inactive) | > 100 µM (inactive) | > 100 µM (inactive) | > 100 µM (inactive) | > 100 µM (inactive) |  | > 100 µM (inactive) | > 100 µM (inactive) |  |  |  | > 100 µM (inactive) | > 100 µM (inactive) | > 100 µM (inactive)
Cc1nc2c(n1CC(C)(C)C)C(=O)c1ccccc1C2=O |  | 36.1 µM (inactive) | > 100 µM (inactive) | 16.7 µM (inactive) | 91.2 µM (inactive) | 76.9 µM (inactive) | > 100 µM (inactive) | > 100 µM (inactive) | > 100 µM (inactive) | > 100 µM (inactive) | > 100 µM (inactive) | 97.7 µM (inactive) | > 100 µM (inactive) | 92.7 µM (inactive) | 
C/C(CC(=O)Nc1ccc(C)c(C)c1)=N\NC(N)=O | > 100 µM (inactive) | > 100 µM (inactive) | > 100 µM (inactive) | > 100 µM (inactive) | > 100 µM (inactive) | > 100 µM (inactive) |  | > 100 µM (inactive) | > 100 µM (inactive) |  | > 100 µM (inactive) |  | > 100 µM (inactive) | 82 µM (inactive) | > 100 µM (inactive)
Cc1nc2nnc(C)n2c2c1C(=O)Nc1ccccc1N2 |  | > 100 µM (inactive) | > 100 µM (inactive) | > 100 µM (inactive) | > 100 µM (inactive) | > 100 µM (inactive) |  | > 100 µM (inactive) | > 100 µM (inactive) | > 100 µM (inactive) | > 100 µM (inactive) | > 100 µM (inactive) | > 100 µM (inactive) | > 100 µM (inactive) | > 100 µM (inactive)
CCOC(=O)[C@H]1Nc2ccc(OC)cc2C2c3ccccc3CC21 (stereo not given in full) | > 100 µM (inactive) |  | > 100 µM (inactive) |  | > 100 µM (inactive) | > 100 µM (inactive) | > 100 µM (inactive) | > 100 µM (inactive) |  | > 100 µM (inactive) | 83.9 µM (inactive) | > 100 µM (inactive) | > 100 µM (inactive) | > 100 µM (inactive) | > 100 µM (inactive)
CC1=NN(C(=O)c2ccncc2)C(=O)C1/N=N/c1ccc(F)cc1 (stereo not given) | 60.5 µM (inactive) | > 100 µM (inactive) |  | 51.6 µM (inactive) |  | > 100 µM (inactive) | > 100 µM (inactive) | > 100 µM (inactive) | > 100 µM (inactive) | > 100 µM (inactive) | 21.5 µM (inactive) |  | 45.3 µM (inactive) | > 100 µM (inactive) | > 100 µM (inactive)
CCOC(=O)C12CCSC1C1(C#N)C(C#N)=CC2(N=P(c2ccccc2)(c2ccccc2)c2ccccc2)n2c(=O)n(-c3ccccc3)c(=O)n21 (stereo not given) | 51.5 µM (inactive) | 26.1 µM (inactive) | 46.2 µM (inactive) | 12.4 µM (inactive) | 30.3 µM (inactive) | 44.6 µM (inactive) | 21.9 µM (inactive) | 36.6 µM (inactive) |  | 39.3 µM (inactive) | 47 µM (inactive) |  | 24.2 µM (inactive) | 29.5 µM (inactive) | 26.1 µM (inactive)
OC1CC1Sc1ccccc1 (stereo not given) | 71.8 µM (inactive) | 14.2 µM (inactive) | 43 µM (inactive) | 29.6 µM (inactive) | 21.1 µM (inactive) | 95.1 µM (inactive) | 30.5 µM (inactive) | 24.5 µM (inactive) | 80.4 µM (inactive) | 33.9 µM (inactive) | 26.7 µM (inactive) |  | 10.1 µM (inactive) | 17.6 µM (inactive) | 30.5 µM (inactive)
Cc1cc2c(c(C(N)=O)c1C)-c1cc(Cl)cc(Cl)c1C2=O | 54.6 µM (inactive) | > 100 µM (inactive) | > 100 µM (inactive) | > 100 µM (inactive) | > 100 µM (inactive) | > 100 µM (inactive) | > 100 µM (inactive) | 73.8 µM (inactive) | 57.4 µM (inactive) | 79.4 µM (inactive) | 22.6 µM (inactive) |  | > 100 µM (inactive) | > 100 µM (inactive) | > 100 µM (inactive)
[N-]=[N+]=NC12CC3C4CC5CC3C(C1)C(C5)C4C2 | > 100 µM (inactive) |  | > 100 µM (inactive) | > 100 µM (inactive) | > 100 µM (inactive) | > 100 µM (inactive) | > 100 µM (inactive) | > 100 µM (inactive) | > 100 µM (inactive) | > 100 µM (inactive) | > 100 µM (inactive) | > 100 µM (inactive) | > 100 µM (inactive) | > 100 µM (inactive) | > 100 µM (inactive)
CCN(CCCl)CCCCCNc1c2ccccc2nc2ccc(OC)cc12 | 1.26 µM (inactive) | 0.0411 µM (active) | 2.14 µM (inactive) | 0.436 µM (active) | 0.0155 µM (active) | 2.04 µM (inactive) | 1.01 µM (active) | 1.47 µM (inactive) | 1.47 µM (inactive) | 1.16 µM (inactive) | 0.942 µM (active) |  | 2.88 µM (inactive) | 0.628 µM (active) | 0.115 µM (active)
